Source: patent US8784795B2, “Methods for determining personalized treatment compositions for prostate cancer and breast cancer” (Caldera Health Ltd., priority 2012, dated 2014)

How the values were obtained:
[1] = tested on: hormone refractory prostate cancer; conditions: clinical trial; cited from earlier work
blood cells = test: Analysis of blood cells treated with Leukine in vivo for changes in perforin levels
From the text: […]

prostate cancer = conditions: patients; cited from earlier work

Molecule: CC(=O)N1CCN(c2ccc(OCC3COC(Cn4ccnc4)(c4ccc(Cl)cc4Cl)O3)cc2)CC1 (stereo not drawn) [ketoconazole]
- response rate [1]: 50%

Molecule: Leukine®: granulocyte-macrophage colony stimulating factor (GM-CSF; also known as sargramostim; trade name Leukine®)
- change in perforin levels of blood cells (blood cells): major increases
- control of prostate cancer (prostate cancer): long-term control of prostate cancer in a substantial number of patients
